This assay deals with Cav3.2 (Homo sapiens, UniProt O95180). The assay can be described thus: Calcium flux FLIPR assay, HEK293 cells recombinantly expressing Cav3.2. The assay is classed as cell-based. The conditions noted are these: Cav3.2-channel, Ca2+ entry stimulated by 10 mM CaCl2. In outline: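 Fluo-4-loaded HEK293 cells stably expressing Cav3.2, seeded overnight at 37 °C; compounds diluted in TEAC buffer (pH 7.2) and preincubated 3 min before Ca2+ entry triggered with CaCl2 at 10 mM final. Area under FLIPR fluorescence trace fitted sigmoidally; IC50 relative to vehicle signal.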
In general terms: Calcium assays in cells follow changes in intracellular calcium, usually with a dye or a luminescent sensor.

Molecules are shown by their SMILES.

Cav3.2, sequence (O95180 whole entry, looked up): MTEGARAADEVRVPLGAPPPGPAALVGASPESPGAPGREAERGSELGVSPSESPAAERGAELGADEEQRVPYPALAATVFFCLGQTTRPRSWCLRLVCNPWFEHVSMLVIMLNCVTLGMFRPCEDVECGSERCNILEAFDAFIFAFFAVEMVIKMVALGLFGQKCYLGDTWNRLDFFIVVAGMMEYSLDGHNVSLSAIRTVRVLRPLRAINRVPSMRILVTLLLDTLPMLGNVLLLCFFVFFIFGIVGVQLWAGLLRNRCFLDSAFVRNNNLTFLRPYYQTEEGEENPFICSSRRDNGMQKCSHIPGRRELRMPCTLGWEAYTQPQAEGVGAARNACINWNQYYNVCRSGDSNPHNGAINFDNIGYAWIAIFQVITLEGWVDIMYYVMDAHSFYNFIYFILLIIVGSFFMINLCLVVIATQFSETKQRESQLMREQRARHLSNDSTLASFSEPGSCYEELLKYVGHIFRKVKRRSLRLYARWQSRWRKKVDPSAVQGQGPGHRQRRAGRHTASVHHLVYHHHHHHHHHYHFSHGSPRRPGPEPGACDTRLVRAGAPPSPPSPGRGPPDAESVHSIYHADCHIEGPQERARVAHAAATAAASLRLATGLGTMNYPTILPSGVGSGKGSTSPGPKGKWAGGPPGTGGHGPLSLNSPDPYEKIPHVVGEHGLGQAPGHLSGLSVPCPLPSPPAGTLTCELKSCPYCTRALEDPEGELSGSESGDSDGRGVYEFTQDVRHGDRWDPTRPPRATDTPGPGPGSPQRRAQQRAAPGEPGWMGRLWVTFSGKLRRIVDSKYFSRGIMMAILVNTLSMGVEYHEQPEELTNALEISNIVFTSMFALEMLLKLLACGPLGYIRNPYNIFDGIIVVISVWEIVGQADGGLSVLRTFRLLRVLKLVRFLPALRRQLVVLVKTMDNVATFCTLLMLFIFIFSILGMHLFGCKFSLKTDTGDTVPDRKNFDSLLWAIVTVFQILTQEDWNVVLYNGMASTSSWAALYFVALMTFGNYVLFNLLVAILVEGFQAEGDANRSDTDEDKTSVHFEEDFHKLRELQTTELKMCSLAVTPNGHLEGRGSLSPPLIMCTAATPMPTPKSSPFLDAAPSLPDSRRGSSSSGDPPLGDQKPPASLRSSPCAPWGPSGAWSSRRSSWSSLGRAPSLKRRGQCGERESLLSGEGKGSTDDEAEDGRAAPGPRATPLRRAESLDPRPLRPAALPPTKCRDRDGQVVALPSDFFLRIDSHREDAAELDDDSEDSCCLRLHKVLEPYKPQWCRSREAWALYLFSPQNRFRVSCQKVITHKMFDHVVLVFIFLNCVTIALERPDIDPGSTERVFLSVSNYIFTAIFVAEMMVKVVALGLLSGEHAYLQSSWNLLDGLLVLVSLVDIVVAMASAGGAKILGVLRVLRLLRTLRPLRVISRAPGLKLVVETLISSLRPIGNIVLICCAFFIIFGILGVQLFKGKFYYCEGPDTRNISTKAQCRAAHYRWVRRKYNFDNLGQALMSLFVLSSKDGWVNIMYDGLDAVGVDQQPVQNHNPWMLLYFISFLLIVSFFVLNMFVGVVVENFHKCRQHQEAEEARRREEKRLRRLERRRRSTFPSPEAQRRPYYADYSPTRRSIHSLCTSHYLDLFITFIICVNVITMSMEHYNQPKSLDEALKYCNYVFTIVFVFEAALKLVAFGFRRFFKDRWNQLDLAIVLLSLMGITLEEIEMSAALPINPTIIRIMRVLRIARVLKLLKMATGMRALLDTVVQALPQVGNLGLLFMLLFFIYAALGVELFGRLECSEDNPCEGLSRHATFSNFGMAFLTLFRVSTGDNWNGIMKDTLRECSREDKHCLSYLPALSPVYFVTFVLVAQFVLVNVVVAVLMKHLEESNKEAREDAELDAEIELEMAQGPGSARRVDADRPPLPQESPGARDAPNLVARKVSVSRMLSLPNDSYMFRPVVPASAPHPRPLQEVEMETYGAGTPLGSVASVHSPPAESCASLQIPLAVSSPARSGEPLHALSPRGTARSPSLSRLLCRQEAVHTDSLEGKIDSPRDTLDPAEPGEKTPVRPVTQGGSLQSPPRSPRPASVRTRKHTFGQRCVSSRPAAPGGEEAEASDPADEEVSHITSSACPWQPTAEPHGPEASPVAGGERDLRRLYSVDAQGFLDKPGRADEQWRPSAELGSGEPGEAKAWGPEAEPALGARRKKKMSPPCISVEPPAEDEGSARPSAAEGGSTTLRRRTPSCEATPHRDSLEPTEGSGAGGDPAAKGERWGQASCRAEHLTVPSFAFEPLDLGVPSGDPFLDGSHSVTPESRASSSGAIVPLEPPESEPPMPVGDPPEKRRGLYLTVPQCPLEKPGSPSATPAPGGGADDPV

On to `COc1cc(Cn2ncc(NC(=O)Cc3ccc(OC4CC(F)(F)C4)cc3)n2)cc(F)c1F` [Example 230, 2-[4-(3,3-Difluoro-cyclobutoxy)-phenyl]-N-[2-(3,4-difluoro-5-methoxy-benzyl)-2H-[1,2,3]triazol-4-yl]-acetamide], for which the IC50 was 350 nM.

Take `N#Cc1ccc(Cn2ncc(NC(=O)Cc3ccc(C4(C#N)CC4)cc3)n2)cc1F` [Example 231, 2-[4-(1-Cyano-cyclopropyl)-phenyl]-N-[2-(4-cyano-3-fluoro-benzyl)-2H-[1,2,3]triazol-4-yl]-acetamide]: the IC50 amounted to 36 nM.

On to `N#Cc1ccc(Cn2ncc(NC(=O)Cc3ccc(S(F)(F)(F)(F)F)cc3)n2)cc1F` [Example 232, N-(2-(4-cyano-3-fluorobenzyl)-2H-1,2,3-triazol-4-yl)-2-(4-(pentafluoro-λ6-sulfanyl)phenyl)acetamide], for which the IC50 was 110 nM.

For the compound `Cn1ncc2cc(CC(=O)Nc3cnn(Cc4ccc(C#N)cc4)n3)ccc21` [Example 234, N-[2-(4-Cyano-benzyl)-2H-[1,2,3]triazol-4-yl]-2-(1-methyl-1H-indazol-5-yl)-acetamide], the IC50 turned out to be 76 nM.

On to `Cc1cc(Cn2ncc(NC(=O)Cc3ccc(C4(F)COC4)cc3)n2)ccc1C#N` [Example 235, N-[2-(4-Cyano-3-methyl-benzyl)-2H-[1,2,3]triazol-4-yl]-2-[4-(3-fluoro-oxetan-3-yl)-phenyl]-acetamide], for which the IC50 stood at 92 nM.

Consider `COc1ccc(Cn2ncc(NC(=O)Cc3ccc(N4CCCC4)nc3)n2)cc1C#N` [Example 236, N-[2-(3-Cyano-4-methoxy-benzyl)-2H-[1,2,3]triazol-4-yl]-2-(6-pyrrolidin-1-yl-pyridin-3-yl)-acetamide], for which the IC50 was determined as 160 nM.

`COC1(c2ccc(CC(=O)Nc3cnn(Cc4ccc(C#N)cc4)n3)cc2)COC1` [Example 237, N-[2-(4-Cyano-benzyl)-2H-[1,2,3]triazol-4-yl]-2-[4-(3-methoxy-oxetan-3-yl)-phenyl]-acetamide]: the IC50 is 200 nM.

Consider `N#Cc1ccc(Cn2ncc(NC(=O)Cc3ccc(OCC4CC(F)(F)C4)cc3)n2)cc1` [Example 238, N-[2-(4-Cyano-benzyl)-2H-[1,2,3]triazol-4-yl]-2-[4-(3,3-difluoro-cyclobutylmethoxy)-phenyl]-acetamide], for which the IC50 is 24 nM.

`COc1cc(Cn2ncc(NC(=O)Cc3ccc(C(C)(C)C)cc3)n2)ccc1C#N` [Example 239, 2-(4-tert-Butyl-phenyl)-N-[2-(4-cyano-3-methoxy-benzyl)-2H-[1,2,3]triazol-4-yl]-acetamide]: the IC50 stood at 210 nM.

On to `COc1cc(Cn2ncc(NC(=O)Cc3ccc4c(c3)c(C)cn4C)n2)cc(F)c1F` [Example 240, N-[2-(3,4-Difluoro-5-methoxy-benzyl)-2H-[1,2,3]triazol-4-yl]-2-(1,3-dimethyl-1H-indol-5-yl)-acetamide], for which the 50% inhibitory concentration (IC50) is 180 nM.

For `Cc1cc(CC(=O)Nc2cnn(Cc3ccc(C#N)cn3)n2)ccc1OCC(F)(F)F` [Example 242, N-[2-(5-Cyano-pyridin-2-ylmethyl)-2H-[1,2,3]triazol-4-yl]-2-[3-methyl-4-(2,2,2-trifluoro-ethoxy)-phenyl]-acetamide], the IC50 came to 54 nM.

`Cc1cn(C)c2ccc(CC(=O)Nc3cnn(Cc4ccc(C#N)cn4)n3)cc12` [Example 243, N-[2-(5-Cyano-pyridin-2-ylmethyl)-2H-[1,2,3]triazol-4-yl]-2-(1,3-dimethyl-1H-indol-5-yl)-acetamide]: the IC50 is 110 nM.

Turning to `CC(C)(C)c1ccc(CC(=O)Nc2cnn(Cc3ccc(C#N)cn3)n2)cc1` [Example 244, 2-(4-tert-Butyl-phenyl)-N-[2-(5-cyano-pyridin-2-ylmethyl)-2H-[1,2,3]triazol-4-yl]-acetamide], the IC50 stood at 34 nM.

On to `N#Cc1ccc(Cn2ncc(NC(=O)Cc3ccc(C4(C(F)(F)F)CC4)cc3)n2)nc1` [Example 245, N-[2-(5-Cyano-pyridin-2-ylmethyl)-2H-[1,2,3]triazol-4-yl]-2-[4-(1-trifluoromethyl-cyclopropyl)-phenyl]-acetamide], for which the IC50 was 190 nM.

Regarding `N#Cc1ccc(Cn2ncc(NC(=O)Cc3ccc(OC4CC(F)(F)C4)cc3)n2)nc1` [Example 246, N-[2-(5-Cyano-pyridin-2-ylmethyl)-2H-[1,2,3]triazol-4-yl]-2-[4-(3,3-difluoro-cyclobutoxy)-phenyl]-acetamide], the IC50 was 680 nM.

As to `N#Cc1ccc(Cn2ncc(NC(=O)Cc3cnc(N4CCCC4)c(F)c3)n2)nc1` [Example 247, N-[2-(5-Cyano-pyridin-2-ylmethyl)-2H-[1,2,3]triazol-4-yl]-2-(5-fluoro-6-pyrrolidin-1-yl-pyridin-3-yl)-acetamide], the IC50 came out at 690 nM.

Regarding `CC(C)(c1ccc(CC(=O)Nc2cnn(Cc3ccc(C#N)c(F)c3)n2)cc1)C(F)(F)F` [Example 249, N-[2-(4-Cyano-3-fluoro-benzyl)-2H-[1,2,3]triazol-4-yl]-2-[4-(2,2,2-trifluoro-1,1-dimethyl-ethyl)-phenyl]-acetamide], the IC50 was determined as 91 nM.

For orientation: IC50 means the concentration at which inhibition is half-maximal.
